As usually defined, the MBC is the smallest concentration meeting the test's criterion for killing. A lower MBC goes with more potent killing. Usually MIC stands for the lowest concentration found to suppress growth. A high value points to a need for much substance.

This is an account of results in ChEMBL document CHEMBL4602639, “A novel series of 11-O-carbamoyl-3-O-descladinosyl clarithromycin derivatives bearing 1,2,3-triazole group: Design, synthesis and antibacterial evaluation” (2020).

Common to all, as to assay type: functional
Assay [1] relates to Bacillus subtilis. The experiment in a line: Bactericidal activity against penicillin-susceptible Bacillus subtilis ATCC 9372.
The test system of assay [2] is Staphylococcus aureus. The experiment in a line: Antibacterial activity against erythromycin-susceptible Staphylococcus aureus ATCC 25923 by standard broth microdilution method. A general note: Dilution methods test growth across graded concentrations, often in twofold steps.
A further assay concerns Escherichia coli. The experiment in a line: Antibacterial activity against penicillin-susceptible Escherichia coli ATCC 25922 by standard broth microdilution method.
The subject of assay [3] is Streptococcus pneumoniae. The experiment in a line: Antibacterial activity against erythromycin-resistant Streptococcus pneumoniae AB11 expressing ermB and me/A genes by standard broth microdilution method.
Assay [4] concerns Streptococcus pyogenes. The experiment in a line: Potency index, ratio of MIC of AZM to MIC of compound for antibacterial activity against erythromycin resistant Streptococcus pyogenes R1.
Assay [5] concerns Streptococcus pyogenes. The assay can be described thus: Potency index, ratio of MIC of CAM to MIC of compound for antibacterial activity against erythromycin resistant Streptococcus pyogenes R1.
The test system of assay [6] is Streptococcus pneumoniae. The experiment in a line: Ratio of MBC for erythromycin-resistant Streptococcus pneumoniae AB11 expressing ermB and me/A genes to MIC for erythromycin-resistant Streptococcus pneumoniae AB11 expressing ermB and me/A genes.
The subject of assay [7] is Streptococcus pyogenes. The assay can be described thus: Antibacterial activity against erythromycin resistant Streptococcus pyogenes R1 by standard broth microdilution method.
A further assay relates to Pseudomonas aeruginosa. The experiment in a line: Antibacterial activity against penicillin-susceptible Pseudomonas aeruginosa ATCC 27853 by standard broth microdilution method.
Assay [8] has as its system Bacillus subtilis. The experiment in a line: Ratio of MBC for penicillin-susceptible Bacillus subtilis ATCC 9372 to MIC for penicillin-susceptible Bacillus subtilis ATCC 9372.
The test system of assay [9] is Staphylococcus aureus. The experiment in a line: Antibacterial activity against methicillin-resistant Staphylococcus aureus ATCC 43300 by standard broth microdilution method.
The test system of assay [10] is Staphylococcus aureus. The experiment in a line: Potency index, ratio of MIC of CAM to MIC of compound for antibacterial activity against methicillin-resistant Staphylococcus aureus ATCC 43300.
Assay [11] has as its system Streptococcus pneumoniae. The assay can be described thus: Potency index, ratio of MIC of AZM to MIC of compound for antibacterial activity against erythromycin-resistant Streptococcus pneumoniae AB11 expressing ermB and me/A genes.
Assay [12] deals with Bacillus subtilis. The experiment in a line: Antibacterial activity against penicillin-susceptible Bacillus subtilis ATCC 9372 by standard broth microdilution method.
Assay [13] deals with Staphylococcus aureus. The assay can be described thus: Potency index, ratio of MIC of AZM to MIC of compound for antibacterial activity against methicillin-resistant Staphylococcus aureus ATCC 43300.
For assay [14], the system named is Streptococcus pneumoniae. The assay can be described thus: Bactericidal activity against erythromycin-resistant Streptococcus pneumoniae AB11 expressing ermB and me/A genes.
Assay [15] deals with Streptococcus pneumoniae. The experiment in a line: Antibacterial activity against erythromycin-resistant Streptococcus pneumoniae B1 expressing ermB gene by standard broth microdilution method.
Assay [16] deals with Streptococcus pneumoniae. The assay can be described thus: Potency index, ratio of MIC of CAM to MIC of compound for antibacterial activity against erythromycin-resistant Streptococcus pneumoniae AB11 expressing ermB and me/A genes.
Assay [17] relates to Streptococcus pneumoniae. The experiment in a line: Potency index, ratio of MIC of AZM to MIC of compound for antibacterial activity against erythromycin-resistant Streptococcus pneumoniae B1 expressing ermB gene.
Assay [18] relates to Streptococcus pneumoniae. The assay can be described thus: Potency index, ratio of MIC of CAM to MIC of compound for antibacterial activity against erythromycin-resistant Streptococcus pneumoniae B1 expressing ermB gene.

The structures appear in SMILES notation. In brackets after ≈: the same amount, converted by molar mass.

As for `CC[C@H]1OC(=O)[C@H](C)C(=O)[C@H](C)[C@@H](O[C@H]2O[C@@H](C)C[C@@H](N(C)C)[C@@H]2O)[C@](C)(OC)C[C@@H](C)C(=O)[C@H](C)[C@@H](OC(=O)NCCCn2cc(-c3ccc(-c4ccccc4)cc3)nn2)[C@]1(C)O`, the MBC in the assay on Bacillus subtilis [1] came to 32 µg/mL (≈ 35.9 µM); against Streptococcus pneumoniae [14], 128 µg/mL (≈ 143 µM). In addition, the MIC against Staphylococcus aureus [2] was 4 µg/mL (≈ 4.48 µM); against Escherichia coli, > 128 µg/mL; against Streptococcus pneumoniae [3] it was 16 µg/mL (≈ 17.9 µM); with Streptococcus pyogenes [7], 16 µg/mL (≈ 17.9 µM); against Pseudomonas aeruginosa, 128 µg/mL (≈ 143 µM); against Staphylococcus aureus [9], 64 µg/mL (≈ 71.7 µM). Also, the MIC against Bacillus subtilis [12] came out at 1 µg/mL (≈ 1.12 µM); against Streptococcus pneumoniae [15], 16 µg/mL (≈ 17.9 µM). Besides, the Ratio is 8 - 16 in the assay with Streptococcus pyogenes [4]; 8 - 16 with Streptococcus pyogenes [5]; 8 with Streptococcus pneumoniae [6]; 32 in the assay on Bacillus subtilis [8]; >4 in the assay with Staphylococcus aureus [10]; 8 - 16 with Streptococcus pneumoniae [11]. Further, the Ratio in the assay on Staphylococcus aureus [13] is given as >4; with Streptococcus pneumoniae [16] it was 4 - 8; with Streptococcus pneumoniae [17], >16; in the assay with Streptococcus pneumoniae [18] it was >16.
